Measured values as given in paper PMC11206203, “Peptide macrocyclisation via intramolecular interception of visible-light-mediated desulfurisation” (Chemical Science, 2024).
Where a SMILES comes first, the peptide text is derived from it. [ ]: non-standard residue; d: D form. Nle = CCCC[C@H](N)C(=O)O

Experiments:
MCL-1 = target: T1, MCL-1 (Homo sapiens, UniProt Q07820); assay: Competitive inhibition, fluorescence anisotropy, MCL-1 and fluorophore-labelled WT BH3 sequence; format: binding; conditions: competition FA; MCL-1 (residues 172-327), tracer FAM-Ahx-BID / fluorophore-labelled WT BH3 sequence; 20 mM Tris, 150 mM NaCl, pH 7.6; 384-well plates, tested in triplicate; excitation 480 nm, emission 535 nm; fit to sigmoidal logistic model; Fig. S160; read-out: inhibitory potency (competitive inhibition, fluorescence anisotropy)
T1 construct: MCL-1 (residues 172-327) was expressed and purified as described previously; made in house
T1 sequence (Q07820 172-327): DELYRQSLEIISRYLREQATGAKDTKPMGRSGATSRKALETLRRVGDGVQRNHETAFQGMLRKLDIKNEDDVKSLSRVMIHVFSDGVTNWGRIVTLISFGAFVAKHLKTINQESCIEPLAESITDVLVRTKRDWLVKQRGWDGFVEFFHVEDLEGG
Description: Finally, to explore internal peptide ‘stapling’ using this strategy, we selected a region of a BH3 protein – BID80–102, that binds MCL-1 to regulate apoptosis.[53,72] This PPI is known to play a significant role in cancer development and progression.[53,72] Three sequences (54–56) were synthesised with alGly and Cys positioned to afford either an internal i, i + 4 staple (57, 59; Fig. 5 and ESI ^†) or i, i + 7 staple (58; Fig. 5 and ESI ^†), fixing the length of either one or two full helical turns of the peptide, respectively. In addition, peptide macrocycle 26 is a head-to-tail macrocycle representing the i, i + 4 binding region of these longer sequences. The staple for all three peptides was successfully formed under the standard conditions, albeit in lower yield than the N- to C-terminal cyclisations previously explored (57–59). The alpha-helical structure of peptide 59 was assessed via CD spectroscopy. […]
All samples were prepared in 20mM Tris, 150 mM NaCl, pH 7.6 solutions. All assays were performed using 384 -well plates (Greiner Bio -one, UK) and tested in triplicate using an EnVisionTM 2103 MultiLabel plate reader (Perkin Elmer; Waltham, MA, USA). […] Measured data were processed and analysed as previously described. […]

[1] = C(sp3)-C(sp3) bond formation by visible-light-mediated Cys desulfurisation: alanyl radical adds to terminal alkene of allylglycine (or O-allyl Ser, pentenylGly, acrylamide); TCEP 50 eq (25 mM), (Ir[dF(CF3)ppy]2(dtbpy))PF6 1 mol%, 450 nm blue LED; unprotected peptides; conditions: from C=CC[C@H](NC(=O)[C@H](C)NC(=O)[C@H](CC(C)C)NC(=O)[C@H](Cc1c[nH]cn1)NC(=O)[C@H](CCCNC(=N)N)NC(=O)[C@H](C)NC(=O)[C@@H](NC(=O)[C@H](CC(N)=O)NC(=O)[C@H](CCCNC(=N)N)NC(=O)[C@@H](NC(=O)[C@@H](NC(=O)[C@H](CC(=O)O)NC(=O)[C@H](CCC(=O)O)NC(C)=O)[C@@H](C)CC)[C@@H](C)CC)[C@@H](C)CC)C(=O)N[C@H](C(=O)NCC(=O)N[C@@H](CC(=O)O)C(=O)N[C@@H](CS)C(=O)N[C@@H](CCCC)C(=O)N[C@@H](CC(=O)O)C(=O)N[C@@H](CCCNC(=N)N)C(=O)N[C@@H](CO)C(=O)N[C@H](C(=O)N[C@@H](Cc1c[nH]c2ccccc12)C(N)=O)[C@@H](C)CC)C(C)C; 17-membered ring; 6 M Gdn.HCl, 0.1 M Na2HPO4 pH 7.5-8.0 / MeCN 9:1; 0.5 mM; 25.0 °C
[2] = CD spectroscopy, alpha-helical structure; format: physicochemical; conditions: alpha-helical content by CD; Fig. S159

Compound | IC50 (MCL-1) [µM] | ring closure, isolated yield [1] [%] | helicity (CD spectroscopy) [2] [%]
CCCC[C@H](NC(=O)[C@H](CO)NC(=O)[C@H](CC(=O)O)NC(=O)CNC(=O)[C@@H](NC(=O)[C@H](CCC(N)=O)NC(=O)[C@H](C)NC(=O)[C@H](CC(C)C)NC(=O)[C@H](Cc1c[nH]cn1)NC(=O)[C@H](CCCNC(=N)N)NC(=O)[C@H](C)NC(=O)[C@@H](NC(=O)[C@H](CC(N)=O)NC(=O)[C@H](CCCNC(=N)N)NC(=O)[C@@H](NC(=O)[C@@H](NC(=O)[C@H](CC(=O)O)NC(=O)[C@H](CCC(=O)O)NC(C)=O)[C@@H](C)CC)[C@@H](C)CC)[C@@H](C)CC)C(C)C)C(=O)N[C@@H](CC(=O)O)C(=O)N[C@@H](CCCNC(=N)N)C(=O)N[C@@H](CO)C(=O)N[C@H](C(=O)N[C@@H](Cc1c[nH]c2ccccc12)C(N)=O)[C@@H](C)CC [BID-wt, reference compound] (Ac-EDIIRNIARHLAQVGDS[Nle]DRSIW-NH2) | 7.4 ± 0.9 |  | 
CCCC[C@H](NC(=O)[C@@H]1CCCC[C@H](NC(=O)[C@H](C)NC(=O)[C@H](CC(C)C)NC(=O)[C@H](Cc2c[nH]cn2)NC(=O)[C@H](CCCNC(=N)N)NC(=O)[C@H](C)NC(=O)[C@@H](NC(=O)[C@H](CC(N)=O)NC(=O)[C@H](CCCNC(=N)N)NC(=O)[C@@H](NC(=O)[C@@H](NC(=O)[C@H](CC(=O)O)NC(=O)[C@H](CCC(=O)O)NC(C)=O)[C@@H](C)CC)[C@@H](C)CC)[C@@H](C)CC)C(=O)N[C@@H](C(C)C)C(=O)NCC(=O)N[C@@H](CC(=O)O)C(=O)N1)C(=O)N[C@@H](CC(=O)O)C(=O)N[C@@H](CCCNC(=N)N)C(=O)N[C@@H](CO)C(=O)N[C@H](C(=O)N[C@@H](Cc1c[nH]c2ccccc12)C(N)=O)[C@@H](C)CC [compound 59] | 26 ± 4 | 49 | 
Ac-EDIIRNIARHLA(alG)VGDCNLDRSIW-NH2 [compound 56, starting peptide carrying the allyl glycine residue] |  |  | 38
